Results: patent US11844794B2, “Pharmaceutical compositions” (ADEPTIO PHARMACEUTICALS LIMITED, priority 2017, dated 2023)

Key:
[1] = equilibrium aqueous solubility by HPLC; type: physicochemical; conditions: water, thermodynamic from solid
Experimental: The aqueous solubilities of salts were measured by an equilibrium method in which an amount of the salt was weighed into a 2 ml vial equipped with a magnetic stirrer bar and water added. In cases where complete dissolution was observed, more material was added until the sample was exhausted. The slurry was then stirred for seven days before isolating the solids by centrifuge-filtration. The solids were analysed by XRPD and the filtrates were analysed by HPLC to determine the amount of (+)-alpha-dihydrotetrabenazine salt in solution. The solubilities were calculated against a calibration curve established for a (+)-alpha-dihydrotetrabenazine sample of known concentration.

[2] = solid form stability in slurry / polymorphism by XRPD; type: physicochemical
[3] = pharmacokinetics after oral administration to male Beagle dogs; type: in vivo, Beagle dog
Experimental: Doses were administered orally, via gavage, at a dose volume of 2.00 mL/kg yielding the target dose level of 1.50 mg/kg. Following dosing, 10 mL of tap water was flushed down the gavage to ensure the entire dose was dispensed. Following dosing over four sessions each with one of the test materials, serial whole blood samples (circa. 1.3 mL) were collected from a jugular vein then placed into K2 EDTA treated tubes pre-dose and then 0.25, 0.50, 1, 2, 3, 4, 6, 12 and 24 hours post dose. Blood samples were placed immediately on a cool-block before being centrifuged within 15 minutes at 3,000×g, 10 minutes, 4° C. and resultant plasma drawn off. […] Doses were administered orally, via gavage, at a dose volume of 2.00 mL/kg yielding the target dose level of 1.50 mg/kg. Following dosing, 10 mL of tap water was flushed down the gavage to ensure the entire dose was dispensed. Following dosing over four sessions each with one of the test materials, serial whole blood samples (circa. 1.3 mL) were collected from a jugular vein then placed into K2 EDTA treated tubes pre-dose and then 0.25, 0.50, 1, 2, 3, 4, 6, 12 and 24 hours post dose. Blood samples were placed immediately on a cool-block before being centrifuged within 15 minutes at 3,000×g, 10 minutes, 4° C. and resultant plasma drawn off.

[4] = male, Beagle (HsdRcc:DOBE), dog, plasma, po, 1.5 mg/kg, Plasma concentration of (+)-α-dihydrotetrabenazine, Male 1, oral 1.50 mg/kg (freebase equivalent)
[5] = male, Beagle (HsdRcc:DOBE), dog, plasma, po, 1.5 mg/kg, Plasma concentration of (+)-α-dihydrotetrabenazine, Male 2, oral 1.50 mg/kg (freebase equivalent)
[6] = male, Beagle (HsdRcc:DOBE), dog, plasma, po, 1.5 mg/kg, Plasma concentration of (+)-α-dihydrotetrabenazine, Male 3, oral 1.50 mg/kg (freebase equivalent)
[7] = male, Beagle (HsdRcc:DOBE), dog, plasma, po, 1.5 mg/kg, Plasma concentration of (+)-α-dihydrotetrabenazine, Mean of 3 dogs, oral 1.50 mg/kg (freebase equivalent)
[8] = male, Beagle (HsdRcc:DOBE), dog, plasma, po, 1.5 mg/kg, Plasma concentration of (+)-α-dihydrotetrabenazine, Mean of 3 dogs, oral 1.50 mg/kg (freebase equivalent), BLQ treated as zero

## COc1cc2c(cc1OC)[C@H]1C[C@@H](O)[C@H](CC(C)C)CN1CC2.O=C(O)CCC(=O)O [(+)-α-dihydrotetrabenazine succinate]
[1]
  solubility thermodynamic at 7 days: > 350 mg/mL
[2]
  polymorphism: no evidence of polymorphism
[3]; dog, in vivo, po, 1.5 mg/kg
  time post dose at which Cmax was observed: 0.33 h
[3]; male Beagle dogs, oral 1.50 mg/kg (freebase equivalent)
  mean exposure: 71.8782 ng·mL·h
[3]; [4]
  concentration at 0.25 h: 66.7 ng/mL
  concentration at 0.5 h: 47.6 ng/mL
  concentration at 1 h: 23.4 ng/mL
  concentration at 2 h: 7.04 ng/mL
  concentration at 3 h: 2.48 ng/mL
  concentration at 4 h: 1.03 ng/mL
  concentration at 6 h: 0.304 ng/mL
[3]; [5]
  concentration at 0.5 h: 32.4 ng/mL
  concentration at 1 h: 14.8 ng/mL
  concentration at 2 h: 3.65 ng/mL
  concentration at 3 h: 1.23 ng/mL
  concentration at 4 h: 0.531 ng/mL
[3]; [6]
  concentration at 0.5 h: 83.1 ng/mL
  concentration at 1 h: 49.2 ng/mL
  concentration at 2 h: 21.7 ng/mL
  concentration at 3 h: 10.6 ng/mL
  concentration at 4 h: 6.21 ng/mL
  concentration at 6 h: 1.68 ng/mL
  concentration at 12 h: 0.212 ng/mL
[3]; male, Beagle (HsdRcc:DOBE), dog, plasma, po, 1.5 mg/kg, Plasma concentration of (+)-α-dihydrotetrabenazine, Mean of 3 dogs, oral 1.50 mg/kg (freebase equivalent), 0 h (pre-dose), BLQ treated as zero
  concentration at 0 h: 0 ng/mL
[3]; [7]
  concentration at 0.25 h: 46 ng/mL
  concentration at 0.5 h: 54.4 ng/mL
  concentration at 1 h: 29.1 ng/mL
  concentration at 2 h: 10.8 ng/mL
  concentration at 3 h: 4.77 ng/mL
  concentration at 4 h: 2.59 ng/mL
[3]; [8]
  concentration at 6 h: 0.66 ng/mL
  concentration at 12 h: 0.07 ng/mL
[3]; male, Beagle (HsdRcc:DOBE), dog, plasma, po, 1.5 mg/kg, Plasma concentration of (+)-α-dihydrotetrabenazine, Mean of 3 dogs, oral 1.50 mg/kg (freebase equivalent), 24 h, BLQ treated as zero
  concentration at 24 h: 0 ng/mL
[3]; male, Beagle, dog, in vivo, po, 1.5 mg/kg
  Cmax: 64.3 ng/mL
